# In ChEMBL document CHEMBL3864167, “Structure-Activity Relationship, Drug Metabolism and Pharmacokinetics Properties Optimization, and in Vivo Studies of New Brain Penetrant Triple T-Type Calcium Channel Blockers” (J Med Chem, 2016):
# Assays:
# [1] = molecular target: Voltage-dependent T-type calcium channel subunit alpha-1G (Homo sapiens, UniProt O43497); test: Channel blocking activity at recombinant human CaV 3.1 channel expressed in HEK293 cells assessed as inhibition of Ca2+ flux preincubated for 3 mins followed by CaCl2 addition by fluo-4 dye-based FLIPR assay; assay type: cell-based
# Chain of Voltage-dependent T-type calcium channel subunit alpha-1G (O43497 whole entry): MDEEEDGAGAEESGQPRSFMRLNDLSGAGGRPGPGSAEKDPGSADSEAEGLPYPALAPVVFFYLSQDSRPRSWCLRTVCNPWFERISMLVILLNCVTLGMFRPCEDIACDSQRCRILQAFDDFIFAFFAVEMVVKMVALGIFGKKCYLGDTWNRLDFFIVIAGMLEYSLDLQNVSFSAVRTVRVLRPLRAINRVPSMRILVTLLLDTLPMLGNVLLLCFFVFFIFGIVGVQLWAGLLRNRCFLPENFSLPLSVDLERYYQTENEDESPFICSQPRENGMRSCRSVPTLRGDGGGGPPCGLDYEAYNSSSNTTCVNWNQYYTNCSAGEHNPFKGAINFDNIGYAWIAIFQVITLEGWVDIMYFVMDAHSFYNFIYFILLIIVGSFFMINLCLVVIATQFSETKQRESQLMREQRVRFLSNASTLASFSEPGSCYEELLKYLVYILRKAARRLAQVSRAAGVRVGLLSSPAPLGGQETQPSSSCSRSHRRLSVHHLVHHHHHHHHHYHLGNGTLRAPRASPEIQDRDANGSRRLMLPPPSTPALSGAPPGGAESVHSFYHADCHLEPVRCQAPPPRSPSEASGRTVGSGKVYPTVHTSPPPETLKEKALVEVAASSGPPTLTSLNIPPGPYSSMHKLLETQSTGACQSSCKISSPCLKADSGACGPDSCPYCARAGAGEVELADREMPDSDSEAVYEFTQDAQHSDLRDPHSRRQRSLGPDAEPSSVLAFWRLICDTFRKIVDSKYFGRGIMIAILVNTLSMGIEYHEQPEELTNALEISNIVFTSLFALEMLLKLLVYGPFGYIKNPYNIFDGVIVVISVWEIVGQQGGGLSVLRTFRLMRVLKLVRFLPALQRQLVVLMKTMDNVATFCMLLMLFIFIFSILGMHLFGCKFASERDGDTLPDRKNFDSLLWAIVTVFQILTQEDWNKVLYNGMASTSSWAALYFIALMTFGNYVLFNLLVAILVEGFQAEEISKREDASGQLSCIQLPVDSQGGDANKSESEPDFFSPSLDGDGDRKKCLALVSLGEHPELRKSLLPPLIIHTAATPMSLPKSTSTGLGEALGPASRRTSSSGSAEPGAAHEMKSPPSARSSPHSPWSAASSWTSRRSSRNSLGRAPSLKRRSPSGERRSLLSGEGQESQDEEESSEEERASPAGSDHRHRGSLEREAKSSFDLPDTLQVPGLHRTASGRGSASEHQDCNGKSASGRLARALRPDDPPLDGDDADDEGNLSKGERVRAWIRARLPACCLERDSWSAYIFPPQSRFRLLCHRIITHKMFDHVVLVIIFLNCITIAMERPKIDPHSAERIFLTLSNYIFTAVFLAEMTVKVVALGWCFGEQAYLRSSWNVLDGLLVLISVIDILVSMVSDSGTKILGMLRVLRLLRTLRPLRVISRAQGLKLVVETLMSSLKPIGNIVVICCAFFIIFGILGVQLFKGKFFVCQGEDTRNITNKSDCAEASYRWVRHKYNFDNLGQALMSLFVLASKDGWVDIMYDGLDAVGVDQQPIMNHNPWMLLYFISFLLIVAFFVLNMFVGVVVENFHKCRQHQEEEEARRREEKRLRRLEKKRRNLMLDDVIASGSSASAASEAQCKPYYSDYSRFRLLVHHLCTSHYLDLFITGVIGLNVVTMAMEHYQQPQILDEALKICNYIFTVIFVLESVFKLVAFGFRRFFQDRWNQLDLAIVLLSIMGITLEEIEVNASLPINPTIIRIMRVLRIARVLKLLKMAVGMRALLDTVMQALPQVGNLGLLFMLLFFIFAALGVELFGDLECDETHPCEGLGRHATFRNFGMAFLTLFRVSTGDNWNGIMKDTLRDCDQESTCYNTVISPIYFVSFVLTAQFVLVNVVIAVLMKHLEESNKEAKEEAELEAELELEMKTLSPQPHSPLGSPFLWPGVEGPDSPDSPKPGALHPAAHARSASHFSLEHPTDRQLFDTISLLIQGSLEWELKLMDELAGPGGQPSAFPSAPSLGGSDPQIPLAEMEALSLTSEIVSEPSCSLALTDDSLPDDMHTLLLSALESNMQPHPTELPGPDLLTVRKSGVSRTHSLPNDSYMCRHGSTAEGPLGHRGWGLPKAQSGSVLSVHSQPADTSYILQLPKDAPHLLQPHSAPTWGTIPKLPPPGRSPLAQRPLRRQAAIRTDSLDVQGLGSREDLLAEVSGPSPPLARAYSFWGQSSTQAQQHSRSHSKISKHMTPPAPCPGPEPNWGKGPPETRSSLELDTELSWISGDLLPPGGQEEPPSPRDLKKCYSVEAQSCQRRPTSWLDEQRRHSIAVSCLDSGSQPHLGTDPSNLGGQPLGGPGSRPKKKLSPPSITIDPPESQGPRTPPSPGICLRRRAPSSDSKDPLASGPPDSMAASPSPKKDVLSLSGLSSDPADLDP
# [2] = molecular target: Voltage-dependent T-type calcium channel subunit alpha-1H (Homo sapiens, UniProt O95180); test: Channel blocking activity at recombinant human CaV 3.2 channel expressed in HEK293 cells assessed as inhibition of Ca2+ flux preincubated for 3 mins followed by CaCl2 addition by fluo-4 dye-based FLIPR assay; assay type: cell-based
# Chain of Voltage-dependent T-type calcium channel subunit alpha-1H (O95180 whole entry): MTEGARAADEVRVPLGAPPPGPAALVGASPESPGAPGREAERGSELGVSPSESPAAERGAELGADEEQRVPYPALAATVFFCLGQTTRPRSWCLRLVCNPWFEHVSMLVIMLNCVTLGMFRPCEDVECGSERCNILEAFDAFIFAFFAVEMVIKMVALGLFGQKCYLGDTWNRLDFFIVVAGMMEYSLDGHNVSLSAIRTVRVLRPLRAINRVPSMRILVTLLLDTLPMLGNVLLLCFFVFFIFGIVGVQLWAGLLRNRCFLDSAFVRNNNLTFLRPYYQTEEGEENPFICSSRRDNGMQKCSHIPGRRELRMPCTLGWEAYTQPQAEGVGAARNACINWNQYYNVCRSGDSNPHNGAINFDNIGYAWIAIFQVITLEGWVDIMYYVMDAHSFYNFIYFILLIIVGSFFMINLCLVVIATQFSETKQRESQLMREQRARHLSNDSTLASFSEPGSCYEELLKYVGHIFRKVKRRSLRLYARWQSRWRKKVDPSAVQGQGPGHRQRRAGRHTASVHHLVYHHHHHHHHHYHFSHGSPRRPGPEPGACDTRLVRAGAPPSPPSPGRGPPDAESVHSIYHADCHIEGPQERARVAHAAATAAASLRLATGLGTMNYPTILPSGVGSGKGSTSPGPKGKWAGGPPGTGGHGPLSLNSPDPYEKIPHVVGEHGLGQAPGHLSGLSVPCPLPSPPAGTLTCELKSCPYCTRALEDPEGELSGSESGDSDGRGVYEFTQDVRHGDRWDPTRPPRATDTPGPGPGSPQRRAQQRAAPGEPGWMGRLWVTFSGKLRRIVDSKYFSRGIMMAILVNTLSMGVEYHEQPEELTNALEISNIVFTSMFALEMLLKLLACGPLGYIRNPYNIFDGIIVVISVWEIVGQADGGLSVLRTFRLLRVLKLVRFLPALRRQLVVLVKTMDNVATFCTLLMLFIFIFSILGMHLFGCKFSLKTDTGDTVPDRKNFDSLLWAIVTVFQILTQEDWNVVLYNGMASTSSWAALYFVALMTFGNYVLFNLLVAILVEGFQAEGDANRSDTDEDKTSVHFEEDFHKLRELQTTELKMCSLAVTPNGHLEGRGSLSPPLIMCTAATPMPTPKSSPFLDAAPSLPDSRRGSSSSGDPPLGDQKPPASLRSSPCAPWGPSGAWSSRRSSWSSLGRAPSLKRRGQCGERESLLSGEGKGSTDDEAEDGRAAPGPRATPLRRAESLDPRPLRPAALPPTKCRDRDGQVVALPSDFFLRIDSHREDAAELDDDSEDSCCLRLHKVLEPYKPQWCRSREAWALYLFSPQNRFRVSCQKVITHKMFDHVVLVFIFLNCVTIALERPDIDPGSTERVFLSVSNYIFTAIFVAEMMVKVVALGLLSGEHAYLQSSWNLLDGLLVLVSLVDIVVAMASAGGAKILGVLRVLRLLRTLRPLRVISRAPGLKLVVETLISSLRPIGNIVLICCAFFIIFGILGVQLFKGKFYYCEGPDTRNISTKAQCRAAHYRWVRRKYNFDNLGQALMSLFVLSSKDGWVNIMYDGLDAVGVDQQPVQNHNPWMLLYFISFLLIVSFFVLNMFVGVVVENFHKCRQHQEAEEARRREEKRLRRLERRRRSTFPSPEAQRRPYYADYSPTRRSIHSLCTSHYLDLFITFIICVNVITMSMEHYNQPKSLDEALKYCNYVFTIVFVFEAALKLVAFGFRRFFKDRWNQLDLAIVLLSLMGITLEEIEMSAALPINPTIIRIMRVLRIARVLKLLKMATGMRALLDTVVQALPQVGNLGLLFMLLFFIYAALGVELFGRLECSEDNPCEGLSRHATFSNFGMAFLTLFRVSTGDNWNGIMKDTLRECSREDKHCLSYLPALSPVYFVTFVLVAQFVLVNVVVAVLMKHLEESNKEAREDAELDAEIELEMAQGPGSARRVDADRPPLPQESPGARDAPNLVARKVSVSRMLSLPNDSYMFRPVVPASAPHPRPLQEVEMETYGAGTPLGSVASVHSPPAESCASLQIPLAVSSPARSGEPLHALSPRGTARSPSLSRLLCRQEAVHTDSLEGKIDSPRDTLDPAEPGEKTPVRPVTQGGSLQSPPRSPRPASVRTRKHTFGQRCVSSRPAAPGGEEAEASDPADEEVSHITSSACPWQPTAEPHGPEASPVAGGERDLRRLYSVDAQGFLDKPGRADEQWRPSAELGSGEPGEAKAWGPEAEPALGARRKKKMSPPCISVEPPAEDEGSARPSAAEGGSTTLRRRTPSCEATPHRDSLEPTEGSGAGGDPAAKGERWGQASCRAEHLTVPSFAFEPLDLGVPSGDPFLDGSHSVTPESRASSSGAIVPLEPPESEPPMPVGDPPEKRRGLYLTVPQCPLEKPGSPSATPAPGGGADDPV
# [3] = molecular target: Voltage-dependent T-type calcium channel subunit alpha-1I (Homo sapiens, UniProt Q9P0X4); test: Channel blocking activity at recombinant human CaV 3.3 channel expressed in HEK293 cells assessed as inhibition of Ca2+ flux preincubated for 3 mins followed by CaCl2 addition by fluo-4 dye-based FLIPR assay; assay type: cell-based
# [4] = Intrinsic clearance in human liver microsomes at 1 uM up to 15 mins in presence of NADPH by LC-MS-MS analysis; assay type: ADME; settings: read-out: CLH
Compound,IC50 [1],IC50 [2],IC50 [3],microsomal CLint at 1 µM [4]
C[C@@H]1CN(Cc2cccc(F)c2)c2ccccc2[C@H](C)N1C(=O)Nc1cccnc1 (racemic),8 nM,14 nM,5 nM,> 1250 µL/min/mg
C[C@@H]1CN(Cc2ccc(F)cc2)c2ccccc2[C@H](C)N1C(=O)Nc1cccnc1 (racemic),25 nM,31 nM,7 nM,> 1250 µL/min/mg
COc1cc2c(cc1F)N(Cc1ccccc1)C[C@@H](C)N(C(=O)Nc1cccnc1)[C@H]2C (racemic),370 nM,414 nM,73 nM,
Cc1ccc2c(c1)N(Cc1ccccc1)C[C@@H](C)N(C(=O)Nc1cccnc1)[C@H]2C (racemic),227 nM,231 nM,74 nM,
C[C@@H]1CN(Cc2cccc(F)c2F)c2ccccc2[C@H](C)N1C(=O)NCc1ccccc1 (racemic),5 nM,9 nM,4 nM,
C[C@@H]1CN(CC2CCCC2)c2ccccc2[C@H](C)N1C(=O)Nc1cccnc1 (racemic),23 nM,62 nM,14 nM,1150 µL/min/mg
COc1cccc2c1[C@H](C)N(C(=O)Nc1cccnc1)[C@H](C)CN2Cc1ccccc1 (racemic),188 nM,305 nM,130 nM,
C[C@@H]1CN(Cc2cnc(C(F)(F)F)s2)c2ccccc2[C@H](C)N1C(=O)NCc1ccccc1 (racemic),13 nM,15 nM,6 nM,> 1250 µL/min/mg
C[C@@H]1CN(Cc2ccccc2)c2ccccc2[C@H](C)N1S(=O)(=O)c1cn(C)cn1 (racemic),576 nM,1490 nM,210 nM,
C[C@@H]1CN(Cc2ccccc2F)c2ccccc2[C@H](C)N1C(=O)Nc1cccnc1 (racemic),4 nM,11 nM,5 nM,1200 µL/min/mg
COc1cccc2c1N(Cc1ccccc1)C[C@@H](C)N(C(=O)Nc1cccnc1)[C@H]2C (racemic),> 5300 nM,> 6500 nM,> 9000 nM,
C[C@@H]1CN(Cc2ccc(C(F)(F)F)o2)c2ccccc2[C@H](C)N1C(=O)Nc1cccnc1 (racemic),4 nM,14 nM,9 nM,> 1250 µL/min/mg
C[C@@H]1CN(CCOC(C)(C)C)c2ccccc2[C@H](C)N1C(=O)NCc1ccccc1 (racemic),35 nM,44 nM,12 nM,
COc1ccc(CN2C[C@@H](C)N(C(=O)NCc3ccccc3)[C@@H](C)c3ccccc32)cn1 (racemic),45 nM,33 nM,10 nM,> 1250 µL/min/mg
C[C@@H]1CN(Cc2ccccc2)c2ccccc2[C@H](C)N1C(=O)CCc1cccnc1 (racemic),31 nM,38 nM,10 nM,> 1250 µL/min/mg
C[C@@H]1CN(Cc2cccc(C(F)(F)F)n2)c2ccccc2[C@H](C)N1C(=O)NCc1ccccc1 (racemic),25 nM,42 nM,14 nM,> 1250 µL/min/mg
CCN1C[C@@H](C)N(C(=O)NCc2ccccc2)[C@@H](C)c2ccccc21 (racemic),754 nM,922 nM,139 nM,> 1250 µL/min/mg
C[C@@H]1CN(Cc2ccccc2)c2c(cnn2C)[C@H](C)N1C(=O)NCc1ccccc1 (racemic),> 9400 nM,> 7300 nM,> 10000 nM,
C[C@@H]1CN(S(=O)(=O)c2ccccc2)c2ccccc2[C@H](C)N1C(=O)Nc1cccnc1 (racemic),> 10000 nM,4690 nM,1810 nM,
C[C@@H]1CN(Cc2ccc(F)c(F)c2)c2ccccc2[C@H](C)N1C(=O)Nc1cccnc1 (racemic),13 nM,18 nM,6 nM,> 1250 µL/min/mg
C[C@@H]1CN(Cc2ccc(C(F)(F)F)o2)c2ccccc2[C@H](C)N1C(=O)NCc1ccccc1 (racemic),7 nM,13 nM,6 nM,> 1250 µL/min/mg
C[C@@H]1CN(Cc2cnc(C(F)(F)F)s2)c2ccccc2[C@H](C)N1C(=O)Nc1cccnc1 (racemic),33 nM,42 nM,33 nM,> 1250 µL/min/mg
C[C@@H]1CN(Cc2ccccc2)c2cc(Br)ccc2[C@H](C)N1C(=O)Nc1cccnc1 (racemic),286 nM,428 nM,137 nM,
C[C@@H]1CN(Cc2ccccc2)c2ccccc2[C@H](C)N1CC1CCOCC1 (racemic),6110 nM,7410 nM,> 10000 nM,
C[C@@H]1CN(Cc2cccnc2F)c2ccccc2[C@H](C)N1C(=O)NCc1ccccc1 (racemic),53 nM,49 nM,10 nM,> 1250 µL/min/mg
C[C@@H]1CN(Cc2ccccc2)c2ccccc2[C@H](C)N1C(=O)C1CCOCC1 (racemic),24 nM,47 nM,8 nM,1160 µL/min/mg
C[C@@H]1CN(Cc2ccccc2)c2cc(S(C)(=O)=O)ccc2[C@H](C)N1C(=O)Nc1cccnc1 (racemic),> 10000 nM,> 8000 nM,> 10000 nM,
C[C@@H]1CN(Cc2ccccc2)c2ccccc2[C@H](C)N1C(=O)CN1CCOCC1 (racemic),36 nM,51 nM,7 nM,> 1250 µL/min/mg
CC(C)CCN1C[C@@H](C)N(C(=O)Nc2cccnc2)[C@@H](C)c2ccccc21 (racemic),23 nM,91 nM,12 nM,> 1250 µL/min/mg

# Further lines, results first:
IC50 [1],IC50 [2],IC50 [3],microsomal CLint at 1 µM [4],Compound
5 nM,17 nM,2 nM,,C[C@@H]1CN(Cc2ccccc2)c2ccccc2[C@H](C)N1C(=O)NCc1ccccc1
262 nM,358 nM,641 nM,,C[C@@H]1c2ccccc2N(Cc2ccccc2)C[C@H](C)N1C(=O)NCc1ccccc1
> 10000 nM,> 11000 nM,> 10000 nM,,C[C@@H]1c2ccncc2N(Cc2ccccc2)C[C@H](C)N1C(=O)NCc1ccccc1
305 nM,392 nM,214 nM,> 1250 µL/min/mg,O=C(NCc1ccccc1)N1CCN(Cc2ccccc2)c2ccccc2C1
193 nM,241 nM,164 nM,> 1250 µL/min/mg,C[C@H]1c2ccccc2N(Cc2ccccc2)CCN1C(=O)NCc1ccccc1 (racemic)
304 nM,682 nM,259 nM,> 1250 µL/min/mg,C[C@@H]1C(=O)N(Cc2ccccc2)c2ccccc2[C@H](C)N1C(=O)NCc1ccccc1 (racemic)
211 nM,198 nM,326 nM,,C[C@@H]1CN(C(=O)NCc2ccccc2)[C@@H](C)c2ccccc2N1Cc1ccccc1 (racemic)
> 7260 nM,> 8580 nM,1710 nM,,C[C@@H]1CN(Cc2ccncc2)c2ccccc2[C@H](C)N1C(=O)NCc1ccccc1 (racemic)
> 8500 nM,> 6400 nM,1000 nM,,C[C@@H]1CN(Cc2ccccc2)c2cncnc2[C@H](C)N1C(=O)NCc1ccccc1 (racemic)
6070 nM,> 11500 nM,> 10000 nM,,C[C@@H]1CN(C(=O)c2ccccc2)c2ccccc2[C@H](C)N1C(=O)NCc1ccccc1 (racemic)
8 nM,14 nM,6 nM,> 1250 µL/min/mg,COc1ccc(CNC(=O)N2[C@H](C)CN(Cc3ccccc3)c3ccccc3[C@@H]2C)cc1 (racemic)
420 nM,841 nM,473 nM,,C[C@@H]1CN(Cc2ccccc2)c2ccccc2[C@H](C)N1C(=O)OCc1ccccc1 (racemic)
293 nM,464 nM,1000 nM,,C[C@H]1c2ccccc2N(Cc2ccccc2)[C@@H](C)CN1C(=O)NCc1ccccc1 (racemic)
476 nM,500 nM,95 nM,,C[C@@H]1CN(Cc2cccnc2)c2ccccc2[C@H](C)N1C(=O)NCc1ccccc1 (racemic)
457 nM,835 nM,892 nM,,C[C@@H]1CN(Cc2ccccc2)c2ccccc2[C@H](C)N1C(=O)N(C)Cc1ccccc1 (racemic)
6280 nM,> 11000 nM,> 8740 nM,,C[C@@H]1CN(Cc2ccccc2)c2ccncc2[C@H](C)N1C(=O)NCc1ccccc1 (racemic)
102 nM,141 nM,26 nM,> 1250 µL/min/mg,C[C@@H]1CN(Cc2ccccc2)c2ccccc2CN1C(=O)NCc1ccccc1 (racemic)
1140 nM,695 nM,206 nM,,C[C@@H]1CN(Cc2ccccc2)c2nnccc2[C@H](C)N1C(=O)NCc1ccccc1 (racemic)
597 nM,212 nM,91 nM,,C[C@@H]1CN(Cc2ccccc2)c2cccnc2[C@H](C)N1C(=O)NCc1ccccc1 (racemic)
676 nM,618 nM,1590 nM,> 1250 µL/min/mg,C[C@@H]1CN(Cc2ccccc2)c2ccccc2C(=O)N1CCc1ccccc1 (racemic)
605 nM,479 nM,97 nM,,C[C@@H]1CN(Cc2ccccn2)c2ccccc2[C@H](C)N1C(=O)NCc1ccccc1 (racemic)
279 nM,340 nM,95 nM,> 1250 µL/min/mg,C[C@H]1CN(Cc2ccccc2)c2ccccc2[C@H](C)N1C(=O)NCc1ccccc1 (racemic)
